# Results from patent US11986450B2, “Methods and compositions for treating infection and inflammation with selenocyanate” (National Jewish Health, priority 2017, dated 2024).
# Experiments:
# [1] = molecular target: recombinant E. coli Cys-TrxR (Escherichia coli, UniProt P0A9P4); assay: Kinetic analysis of HOSeCN metabolism; type: biochemical; conditions: similar conditions
# Text: FIG. 12. Kinetic analysis of HOSeCN metabolism by recombinant mouse Sec-TrxR2 and recombinant E. coli Cys-TrxR.
# [2] = system: Burkholderia cepacia complex (BCC); assay: BCC viability (CFU) after SeCN / peroxidase system; type: cell-based; conditions: full peroxidase system, 1 hour, pH 7.4
# Description: (§1) Human bronchial epithelial cells (HBE) or Burkholderia cepacia complex (BCC) were treated for 1 hour in PBS (control), SeCN only (grey bars), glucose oxidase only (hatch bar), or full peroxidase system (black bar) at pH 7.4 and then media replaces and viability assessed 24 hours later. HBE cell viability assessed by MTT and bacterial cell viability assessed by colony forming units.
# DmTrxR (containing Cys) = DmTrxR (containing Cys) (Drosophila melanogaster, UniProt P91938); assay: Inactivation of TrxR by oxidants; type: biochemical
# DmTrxR (containing Cys), sequence (P91938 112-596 limits assumed): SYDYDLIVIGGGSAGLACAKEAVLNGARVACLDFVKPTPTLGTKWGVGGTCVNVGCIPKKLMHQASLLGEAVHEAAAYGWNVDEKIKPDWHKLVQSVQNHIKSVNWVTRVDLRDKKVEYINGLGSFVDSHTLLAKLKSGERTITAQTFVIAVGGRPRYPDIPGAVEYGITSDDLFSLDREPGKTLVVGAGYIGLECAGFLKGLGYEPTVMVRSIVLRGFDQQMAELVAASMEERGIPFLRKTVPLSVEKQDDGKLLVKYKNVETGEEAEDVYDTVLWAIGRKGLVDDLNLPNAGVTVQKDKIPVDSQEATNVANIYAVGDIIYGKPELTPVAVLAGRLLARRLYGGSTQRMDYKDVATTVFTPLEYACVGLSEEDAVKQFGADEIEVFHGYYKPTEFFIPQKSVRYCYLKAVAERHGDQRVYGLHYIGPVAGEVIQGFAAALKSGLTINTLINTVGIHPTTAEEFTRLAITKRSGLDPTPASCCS
# Description: (§2) Based on data, it is expected that Sec-TrxR1 is able to metabolize both HOSCN and HOSeCN but not HOCl, and that Cys-TrxR's is unable to metabolize these oxidants. The active site Cys or Sec residue of each respective enzyme is oxidized to either Cys-SO2^− or Sec-SeO2^−. The Cys-TrxR cannot recover from this oxidation while the Sec-TrxR can. To test this, an inactivation assay is performed followed by structural analysis of the protein by MS. In the inactivation assay, (i) enzymes are reduced with NADPH, (ii) the enzymes are treated with oxidant followed by desalting to remove oxidant, and (iii) the enzyme is assayed for activity. […] The proteins are proteolyzed followed by LC-MS analyses. The LC-MS profiles are compared to control samples not treated with oxidant. This determines the exact mechanism of inactivation for each enzyme. […] This would explain why HOCl is highly inflammatory (nonspecific oxidation), and why HOSCN is used as a bactericide because it can rapidly inactivate proteins/enzyme by oxidation of sulfur amino acids (Cys, Met), but can be metabolized by the host cell by Sec-TrxR.
# [3] = molecular target: Sec-containing TrxR2 (Sec-TrxR2) (Mus musculus, UniProt Q9JLT4); assay: Inactivation of TrxR by oxidants; type: biochemical
# Sec-containing TrxR2 (Sec-TrxR2), sequence (Q9JLT4 35-524): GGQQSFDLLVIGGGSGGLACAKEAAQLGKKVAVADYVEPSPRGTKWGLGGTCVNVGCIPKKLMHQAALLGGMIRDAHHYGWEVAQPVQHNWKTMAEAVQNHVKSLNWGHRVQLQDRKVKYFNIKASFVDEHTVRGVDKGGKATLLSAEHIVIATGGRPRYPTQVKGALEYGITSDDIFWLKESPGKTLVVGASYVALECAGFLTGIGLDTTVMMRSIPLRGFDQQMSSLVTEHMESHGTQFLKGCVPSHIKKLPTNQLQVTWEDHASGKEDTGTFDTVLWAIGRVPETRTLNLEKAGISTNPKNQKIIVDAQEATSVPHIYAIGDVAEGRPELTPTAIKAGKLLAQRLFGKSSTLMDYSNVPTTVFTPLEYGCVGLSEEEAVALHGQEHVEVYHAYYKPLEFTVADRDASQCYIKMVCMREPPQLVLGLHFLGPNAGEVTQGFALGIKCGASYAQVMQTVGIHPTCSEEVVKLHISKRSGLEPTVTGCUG
# Description: as §2
# [4] = system: clinical isolate of M. abscessus; assay: NTM killing, exposure to GOX, LPO, SeCN components; type: cell-based; conditions: plated on LB agar immediately after mixing
# Text: (§3) FIGS. 24A and 24B show —SeCN-mediated killing of NTM requires LPO, but not GOX, while LPO/—SeCn has no effect upon B. Cepacia. […] All conditions with GOX also contained dextrose, the required substrate of GOX for H2O2 production.
# (§4) Susceptibility of NTM species to both HOSCN- and HOSeCN-mediated killing. […] Given the shorter amount of time necessary for —SeCN-mediated killing of NTM compared to other bacteria species (FIGS. 24A and 24B), the possibility that the mechanism responsible for —SeCN-mediated killing of NTM was unique compared to —SCN-mediated killing of NTM and —SeCN-mediated killing of other species is determined. […] Since killing required LPO, the inventors believe that endogenous H2O2 production by NTM provided the H2O2 required for the generation of HOSeCN via LPO and —SeCN.
# [5] = system: Pseudomonas aeruginosa (PA) lung infection
# Description: FIGS. 8A-8C. […] Wild type (WT) and beta-subunit of the epithelial Na(+) channel (βENaC) Tg Mice were nebulized with 0.5% ^−SCN twice-daily starting 24 hrs post infection. Mice were sacrificed 72 hrs post infection and lung burden of PA was assessed (FIG. 8A), BAL neutrophil counts (FIG. 8B), and BALF KC cytokine (IL-8 analog) levels determined (FIG. 8C).
# The inventors have shown critical in vivo proof of principle with inhaled ^−SCN in PA-infected mice (Chandler, J. D., et al. (2015); Chandler, J. D., et al. (2013) Nebulized thiocyanate improves lung infection outcomes in mice. Br J Pharmacol 169, 1166-1177). […] Mice that overexpress a sodium channel, βENaC, have been developed that spontaneously develop lung inflammation and mucous obstructions similar to that reported in subjects with CF (Mall, M., et al. (2004) Increased airway epithelial Na+ absorption produces cystic fibrosis-like lung disease in mice. Nat Med 10, 487-493). This model is useful to differentiate the antimicrobial effect of an agent from its potential anti-inflammatory effects.
# [6] = aerosolized isotonic 0.5% (w/v) solution in PBS for 30 minutes
# Description: Mice (C57B6) were exposed to an aerosolized isotonic 0.5% (w/v) ^−SCN solution in PBS for 30 minutes (0 hr) and ^−SCN levels in the ELF and serum were determined by HPLC-EC at various time points.
# [7] = system: Human peripheral blood neutrophils activated with PMA; conditions: 20 ng/ml PMA, 200 μM thiocyanate
# Description: Cytotoxicity was assessed by measuring lactate dehydrogenase (LDH) release.
# [8] = system: macrophage (J774A.1.) cells; conditions: 100 μM HOCl, 400 μM SCN, 15 minutes, viability after 6 hrs
# Description: Cells were exposed to 100 μM HOCl and/or 400 μM ^−SCN in PBS for 15 minutes, washed and then placed in fresh media for 6 hrs before viability assessment with flow cytometry (FIG. 7A).
# [9] = system: Pseudomonas aeruginosa, Burkholderia cepacia complex, methicillin resistant Staphylococcus aureus; assay: Killing of CF colonizing bacteria by SCN or SeCN with host defense system (LPO+GOX); type: cell-based; conditions: 400 uM with LPO+GOX, 2 hours at room temperature, CFU
# Description: Comparisons of HOSeCN on SCN sensitive and resistant strains of (FIGS. 30A & 30B) BCC clinical isolates, (FIGS. 30C & 30D) PA clinical isolates, and (FIG. 30E & FIG. 30F) MRSA clinical isolates. Bacteria were incubated for 2 hour with LPO, ^−SCN or SeCN, glucose and increasing amounts of GOX. The flux (HOX) of either HOSCN or HOSeCN was determined from standard curves of GOX/LPO and either HOSCN or HOSeCN. LC50 values were determined by curve fitting the data with nonlinear regression of log (agonist) vs normalized response.
# M. Abscessus = assay: Killing of NTM clinical isolate with LPO/GOX and SCN or SeCN; type: cell-based; conditions: 1800 mU/mL LPO and 300 mU/mL GOX
# Text: A HOSCN-sensitive nontuberculous Mycobacteria (NTM) clinical isolate ws exposed to LPO/GOX with either SCn or SeCN.
# as §4
# [10] = system: Burkholderia cepacian clinical isolate; assay: B. cepacia exposure to LPO and KSeCN; type: cell-based; conditions: 1000 mU/mL LPO, no GOX; 0 hr and 1 hour at 37 C
# Text: as §3, §4
# [11] = system: NTM strains (MABSC subspecies abscessus and massiliense); assay: LPO and SeCN dose responses in the killing of NTM; type: cell-based; conditions: four NTM strains, dose curves of LPO and SeCN, plated on LB agar immediately after mixing
# Description: FIGS. 25A and 25B show [LPO] and [—SeCN] dose responses in the killing of NTM. […] All samples were plated on LB immediately after mixing. CF0271-0636 and the ATCC strains were MABSC subspecies abscessus and CF0008-6241 was subspecies massiliense.
# (§5) To examine the variability in susceptibility to HOSeCN-mediated killing amongst clinical NTM isolates obtained from CF airways, four NTM strains were exposed to dose curves of LPO and —SeCN (FIGS. 25A and 25B). While some variations were detected in the sensitivity to killing amongst the isolates, bacterial viability was reduced to less than 10% with all isolates when plated on LB agar immediately after reactions were mixed. Importantly, levels of —SeCN able to reduce bacterial viability were not toxic to human epithelial cells, even in the presence of GOX (FIG. 26).
# [12] = system: Human bronchial epithelial cells (HBE); assay: HBE cell viability (MTT) after SeCN / peroxidase system; type: cell-based; conditions: 1 hour treatment, viability 24 hours later, even in the presence of GOX
# Description: as §1, §5
# [13] = system: clinical isolate of M. abscessus; assay: SeCN-mediated killing of NTM in different buffer/media; type: cell-based
# Description: FIGS. 27A-27C show —SeCN-mediaed killing of NTM requires active growth. A clinical isolate of M. abscessus was incubated in the listed buffer/media containing LPO at 1000 mU/ml and either KCL or SeCN. At the indicated time, samples were plated on LB agar as undiluted or 10× diluted in PBS. […] FIG. 27A in PBS; FIG. 27B in Middlebrook 7H9; FIG. 27C in Lysogeny Broth.
# Given the reduced viability observed with immediate plating of LPO/—SeCN reactions on LB agar while —SCN-mediated killing required prolonged incubation, the possibility that HOSeCN generated on the LB agar was responsible for the loss in viability was determined. […] The inventors believe that the LPO in undiluted samples remained active on the LB agar, and that the HOSeCN-mediated killing of NTM, which was not metabolically active in the PBS buffer, requires active growth of the NTM, which occurs on the LB agar. To test this, the PBS buffer was substituted with either Middlebrook 7H9 media (without catalase) or LB broth (FIGS. 27A, 27B and 27C).
# NTM = assay: Preincubation of NTM with LPO, washing, then SeCN; type: cell-based; conditions: data not shown
# Description: The opposite is expected to be true for highly resistant NTMs. Adding exogenous catalase or an H2O2 scavenger is expected to inhibit —SeCN-mediated killing, while inhibiting endogenous catalase activity will increase —SeCN-mediated killing. In addition, LPO activity is expected to be localized to the surface of the bacterium. […] It is expected that very little Burkholderia will be killed when incubated in the presence of NTM/LPO/—SeCN, as the highly reactive HOSeCN species will be consumed by the NTM.
# [14] = Inhaled SeCN in mice, ELF and serum levels by HPLC-EC; type: in vivo, Mice (C57B6); conditions: aerosolized isotonic 0.05% (w/v) solution in PBS for 30 minutes
# Description: Mice are exposed to aerosolized isotonic (0.9%) or isotonic ^−SeCN (0.05%) in a Plexiglas nebulizing chamber (see FIG. 32 for data). Isotonicity is maintained by substituting ^−SeCN for NaCl. All stock solutions are freshly prepared and 10 mL are nebulized over the 30 minute exposure using a pulmosonic nebulizer (DeVilbiss). Outcomes include: 1) changes in serum, ELF, lung and BAL cell GSH, ^−SCN and SeCN levels; 2) changes is lung tissue Sec-TrxR levels and activity; 3) changes in oxidative stress with assessments of DNA (8-hydroxy-2-deoxyguanosine, 8OH2dG) and lipid (4-hydroxynonenal, 4HNE) oxidation; 4) changes in lung and blood bacterial CFUs; 5) changes in bronchoalveolar lavage fluid (BALF) protein, IgM and lactate dehydrogenase (LDH) as markers of edema and injury; 6) BAL cell counts and differentials as markers of inflammation; 7) changes in BALF cytokine profile (Mouse pro-inflammatory-7 Ultra sensitive kit, IFNγ, IL-1β, IL-10, IL-12p70, IL-6, KC, TNFα, Meso Scale Discovery) as markers of inflammation; and 8) standard histopathology assessments.
# [15] = nebulized 0.5%, twice daily, started 1 day after infection, 72 hours
# [16] = LPO 1000 mU/ml, 0 to 4 hours, diluted 10× before plating
# recombinant E. coli Cys-TrxR, sequence (P0A9P4 whole entry): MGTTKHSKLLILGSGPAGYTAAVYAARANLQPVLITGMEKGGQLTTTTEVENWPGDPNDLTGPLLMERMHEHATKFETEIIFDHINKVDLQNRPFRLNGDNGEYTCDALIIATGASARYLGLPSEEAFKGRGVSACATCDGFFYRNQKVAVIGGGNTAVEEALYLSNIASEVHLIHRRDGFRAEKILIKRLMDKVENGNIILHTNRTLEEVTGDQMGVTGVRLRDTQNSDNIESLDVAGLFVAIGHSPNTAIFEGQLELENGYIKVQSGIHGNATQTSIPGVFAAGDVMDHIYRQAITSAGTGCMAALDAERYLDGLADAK
compound,measurement,setting,value
"N#C[Se]O [HOSeCN, hyposelenocyanite]",HOSeCN metabolism activity,[1],no measurable activity
same,Bacterial cell viability (CFU),[2],killing bacteria
same,Inactivation of DmTrxR by oxidant,DmTrxR (containing Cys),is inactivated
same,Inactivation of Sec-TrxR2 by oxidant,[3],resists inactivation
"N#CS [SCN, thiocyanate]","Killing of NTM with LPO, without GOX",[4],did not kill NTM
same,BAL neutrophil cell counts,"[5]; mouse, in vivo",decreased
same,Lung CFU PA burden,"[5]; mouse, in vivo",lower lung CFU PA burden
same,BAL levels of KC (IL-8 analog),[5]; [15],decreased
same,Body weight loss,[5]; [15],less body weight loss
same,Lung pyocyanin levels,[5]; [15],decreased lung pyocyanin levels
same,ELF SCN levels,[6],high ELF ^−SCN levels
same,Tolerability of inhaled SCN,[6],well tolerated
same,Cytoprotection in activated neutrophils,[7],cytoprotective
same,Protection from HOCl-mediated necrosis,[8],protects macrophage (J774A.1.) cells from HOCl-mediated necrosis
"N#C[SeH] [SeCN, selenocyanate]","Killing of thiocyanate susceptible and resistant bacteria, compared with SCN",[9],as effective or superior
same,"Killing of M. Abscessus, compared with SCN",M. Abscessus,more efficient than SCN
same,"Killing of NTM with LPO, without GOX",[4],only required LPO and —SeCN
same,Effect of LPO and SeCN alone upon B. cepacia,[10],no effect
same,Bacterial viability,[11],less than 10%
same,Toxicity to human epithelial cells (HBE viability),[12],not toxic
same,Bacterial growth in Middlebrook 7H9 media,[13]; [16],prevented bacterial growth
same,Viability in LB broth,[13]; [16],loss of viability
same,Killing in PBS buffer,"[13]; with LPO, samples diluted 10-fold before plating on LB agar",no killing detected
same,Killing of NTM after LPO preincubation and washing,NTM,substantial killing
same,ELF SeCN levels,[14],high ELF SeCN levels
same,Tolerability of inhaled SeCN,[14],well tolerated
